According to patent publication US20090054376A1, “BENZOFURAN DERIVATIVES WITH THERAPEUTIC ACTIVITIES” (Pharmos Corporation, priority 2005, published 2009):
Where two headings read alike, the source gives them in different places.

Experiments:
[1] = target: T1, Human CB1 Receptor (Homo sapiens, UniProt P21554); assay: [35S]GTPγS-binding assay, hCB1; type: biochemical; conditions: NB = no binding
T1 construct: expressed in transfected cells; host or cells: HEK-293 cells (membranes)
Method: (§1) Functional activity of compounds of the invention toward the cannabinoid receptors was determined by stimulation of [^35S]-GTPγS binding using membranes from HEK-293 cells expressing the hCB1 receptor and membranes expressing the hCB2 receptor derived from either Sf9 (PerkinElmer) or from HEK-293 cells. Activities were compared to that of the known cannabinoid full agonist CP55940 (Alexis). The purpose of this experiment is to determine the potency of the compounds of the invention as agonists or antagonists toward each of the receptor tested.
(§2) [^35S]-GTPγS binding reactions were performed at 30° C. in 96-well plates containing 5-10 μg membrane protein suspended in 0.1 ml binding buffer [20 mM HEPES-NaOH, pH 7.4, 5 mM MgCl2, 100 mM NaCl, 0.2% (w/v) bovine serum albumin] supplemented with 50 μM GDP and 0.06 nM-10 μM of the compound being tested. Binding was initiated by the addition of [^35S]GTPγS (0.3 nM final concentration). Incubations were performed for 90 minutes and were terminated by filtration on GF/C filter plates (PerkinEimer). Filters were washed ten times with ice-cold wash buffer (20 mM HEPES-NaOH, pH 7.4, 10 mM sodium pyrophosphate). Non-specific binding was measured in the presence of 15 μM GTPγS.
(§3) Assays were performed in duplicates. Data was analyzed by plotting on the X axis the log concentration against percent of specific [^35S]GTPγS binding out of basal [^35S]GTPγS binding on the Y axis, non-linear regression is then performed using GraphPad Prism, version 3.0 (GraphPad, San Diego, Calif.) to calculate the EC50 and Emax of the compound. The EC50 value represents the concentration at which there is 50% [^35S]GTPγS binding and the Emax value the upper plateau of the curve.

[2] = target: T2, Human CB2 Receptor (Homo sapiens, UniProt P34972); assay: [35S]GTPγS-binding assay, hCB2; type: biochemical; conditions: GTPγS, Human CB2 Receptor; NB = no binding
T2 construct: host or cells: Sf9 or HEK-293 cells (membranes)
Method: as §1, §2, §3

[3] = test system: IL-1β; assay: Gene expression in LPS activated RAW 264.7 macrophages, IL-1β; type: cell-based, mouse; conditions: RAW 264.7, 10 μM, LPS 1 μg/ml, RNA 3 hrs after activation, vs vehicle treated activated cells
Method: (§4) RAW 264.7 macrophages, a mouse cell line (ATCC # TIB 71), were grown in Dulbecco's modified Eagle's medium (DMEM) with 4 mM L-glutamine adjusted to contain 1.5 g/L sodium bicarbonate, 4.5 g/L glucose, and 10% heat inactivated fetal bovine serum. Cells were grown in tissue culture flasks and seeded at appropriate density into 6 wells tissue culture plates. Four million Raw cells in half a milliliter were stimulated with 1 μg/ml LPS E. coli 055:B5 (DIFCO Laboratories). The mouse macrophages were pre-treated for one hour with controls or 10 μM of test compounds, and later on activated with LPS. RNA samples were extracted from the cells 3 hrs after activation and gene expression levels were analyzed by real-time RT-PCR. In parallel, supernatants were collected and secretion of inflammatory mediators was analyzed using ELISA techniques according to the instructions of the kit manufacturer.
(§5) Total RNA is prepared using SV total RNA isolation system (Promega). The cells were homogenized in lysis buffer. The lysates were transferred to an RNA isolation column, treated with DNAse, washed and eluted according to kit instructions. RNA concentrations were determined using GeneQuant II (Pharmacia-Amersham). Complementary DNA (cDNA) was synthesized from total RNA using […] II reverse transcriptase (Life Technologies). 2 μg of total RNA were combined with an oligo (dT)15 primer, 0.5 mM dNTP mix, 8 units of reverse transcriptase and other reaction components up to a final volume of 20 μl, according to the kit instructions. The reaction mixture was incubated at 42° C. for 45 min and inactivated at 70° C. for 15 minutes. Quantitative real-time RT-PCR included 1 μl of the cDNA, 300 nM of the appropriate forward and reverse primers (according to the gene monitored) and 7.5 μl of the reaction mix containing buffer, nucleotides, Taq polymerase and SYBER green (SYBER Green master mix, Applied Biosystems), in a total reaction volume of 15 μl. Gene amplification was obtained using the GeneAmp 5700 sequence detection system (Applied Biosystems). Amplification included one stage of 10 minutes at 95° C. followed by 40 cycles of a 2-steps loop: 20 seconds at 95° C., and 1 minute at 60° C. During each annealing step, the amount of the amplified product was measured by the fluorescence of the double strand DNA binding dye, SYBER Green. The cycle of threshold (CT), representing the PCR cycle at which an increase in fluorescence above a baseline signal can be first detected, was determined for each product. A delay of one PCR cycle in the CT is translated into a two-fold decrease in starting template molecules and vice versa. The changes in the CT of the specific gene product were normalized to the changes in the CT of housekeeping cyclophilin or GAPDH as reference genes. Results were expressed as fold increase of gene expression in treated or untreated activated cells above the resting cells, after normalization to cyclophilin or GAPDH. Cells were also tested for viability to confirm that any effect on gene expression was indeed due to modulation of transcription of a specific target and not to cytoxicity.
(§6) Results were further expressed as percent inhibition of gene expression in compound treated activated cells over vehicle “treated” activated cells. Since the modulation of IL-10 and TNF-α gene expression by the compounds of the invention is relatively minor, it is not reported. […] Inhibition above 50% was considered significant.

[4] = test system: iNOS; assay: Gene expression in LPS activated RAW 264.7 macrophages, iNOS; type: cell-based, mouse; conditions: RAW 264.7, 10 μM, LPS 1 μg/ml, RNA 3 hrs after activation, vs vehicle treated activated cells
Method: as §4, §5, §6

[5] = test system: MCP-1; assay: Gene expression in LPS activated RAW 264.7 macrophages, MCP-1; type: cell-based, mouse; conditions: RAW 264.7, 10 μM, LPS 1 μg/ml, RNA 3 hrs after activation, vs vehicle treated activated cells
Method: as §4, §5, §6

[6] = test system: carrageenan induced inflammatory pain and paw edema; assay: Inflammatory pain and paw edema induced by carrageenan; type: in vivo, Male Sprague Dawley rats; conditions: for inhibition in vivo at 10 mg/kg: Rattus norvegicus, ip
In short: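 Male Sprague Dawley rats (~200 g) received 0.1 ml 2% λ-carrageenan subplantar in the right paw; compounds given i.p. at 3, 10 or 20 mg/kg (some p.o.) immediately after. Thermal (Hargreaves) latency, mechanical threshold, paw thickness and volume measured at 0 and 3 h; values are inter-paw differences ([…], ΔForce), volume as % of vehicle.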

[7] = test system: COX-2; assay: Gene expression in LPS activated RAW 264.7 macrophages, COX-2; type: cell-based, mouse; conditions: RAW 264.7, 10 μM, LPS 1 μg/ml, RNA 3 hrs after activation, vs vehicle treated activated cells
Method: as §4, §5, §6

[8] = test system: visceral pain writhing responses; assay: Visceral pain, acetic acid induced writhing responses; type: in vivo, Male ICR mice; conditions: single dose 2 mg/kg i.v., compared to untreated group
[9] = test system: TNBS induced inflammatory bowel disease; assay: TNBS induced inflammatory bowel disease; type: in vivo, Female Balb/C mice; conditions: for transient loss in body weight: one day after TNBS instillation; for mortality: untreated 60%
Method: Female Balb/C mice (average body weight 20 g, Harlan, Israel) were lightly sedated and challenged rectally, by instillation with 70 μl of 2.5% TNBS (Sigma) dissolved in 50% ethanol, to induce intestinal inflammation and colitis. Animals were weighted before the beginning of the study and treatment was administered i.p. on a daily basis for six days at 20 mg/kg and volume dosage of 5 ml/kg. During the study period of up to 7 days, the following parameters were daily monitored and recorded: body weight, presence of blood in the stool and stool consistency. These findings are scored according to Table 6 [Murthy S.N. et al., Dig. Dis. Sci. 38:1722-34, 1993].
On the last day of the study, animals were euthanized. Abdomen was open and the colon was sectioned at the level of the caecum and the rectum. The colon was weighted and its length was measured. The whole column was excised, slited longitudinally, and examined under a magnifying lens. Any visible damage was recorded and scored for gross pathology according to Wong [Wong et al., J. Pharm. Exp. Ther. 274: 475-80, 1995]. Namely, a score of 0 indicates no damage, 1 indicates localized hyperemia and/or edema, 2 indicates at least two sites of hyperemia and/or edema, 3 indicates localized erosion, 4 indicates localized ulcer and 5 indicates either an erosion site or ulcer extending for more than 2 cm along the colon or at least two sites of erosion or ulcer. Finally, the entire colon was fixed in 4% formaldehyde for histopathological evaluation.
Each treatment group comprised at least seven animals. The following groups served as negative controls: naïve animals, sham animals that received 70 μl of 50% ethanol without TNBS, and TNBS challenged untreated and vehicle treated animals. A group of animals receiving 10 mg/kg sulfasalazine served as positive controls. Sulfasalazine is a standard anti-inflammatory drug used for the treatment of mild to moderate ulcerative colitis and Crohn's disease, and as adjunctive therapy in the treatment of severe ulcerative colitis. This drug is also used for the treatment of non-IBD related disorders, such as rheumatoid arthritis and ankylosing spondylitis. The recognized side effect of this medicament is its hepatotoxicity upon chronic treatment.

[10] = test system: mechanical allodyna after chronic constriction of the sciatic nerve; assay: Neuropathic pain, chronic constriction of the sciatic nerve (CCI); type: in vivo, Male Sprague Dawley rats; conditions: both 0.25 and 2 mg/kg i.v.
Method: The analgesic activity of compounds of the invention was assessed in a chronic constriction induced (CCI) model of neuropathic pain. […] The development of mechanical allodyna was monitored using a Dynamic Plantar Sesthesiomether as described in Example 18. This apparatus is an automated version of the classical von Frey filaments' test.
Pre-surgery baseline values were ascertained as the mean of 2 pre-surgery values. Once the baseline values are established, the animals were surgically prepared by constricting the right sciatic nerve with 4-0 chromic cat gut loose ligatures. On day 11 post-operation, the animals that have developed mechanical allodyna were arbitrarily allocated to the various treatment groups based on the pre-surgery values.
The design was randomized, performed in a masked fashion as to whether drug or vehicle is being given. Male Sprague Dawley rats (average body weight 240 g, Harlan, Israel), were allowed to acclimatize to the behavioral testing equipment prior to testing. On the testing day, the animals, at least six per treatment group, were administered the compounds and controls at a volume dosage of 5 ml/kg. Fifteen minutes later, the mechanical stimulus was applied and the force, measured in grams, causing a withdrawal response for each of the ipsilateral and contralateral hind paws was evaluated.
Results are expressed as mean±SEM for each treatment group and the differences among those groups are analyzed by analysis of variance (ANOVA) followed by post-hoc Tukey's test. A value of p<0.05 is considered to be statistically significant. Thereafter the difference in the force to be applied to the injured paw as compared to the normal paw was calculated. Δforce, expressed in grams, was measured at baseline and 1 and 4.5 hours after treatment.

[11] = 10 mg/kg i.p., 3 hours, mechanical stimulus, read-out: Percent Inhibition of Inflammatory Pain Responses, ΔForce
[12] = 10 mg/kg i.p., 3 hours, thermal stimulus, read-out: Percent Inhibition of Inflammatory Pain Responses, ΔLT

T1 sequence (P21554 whole entry): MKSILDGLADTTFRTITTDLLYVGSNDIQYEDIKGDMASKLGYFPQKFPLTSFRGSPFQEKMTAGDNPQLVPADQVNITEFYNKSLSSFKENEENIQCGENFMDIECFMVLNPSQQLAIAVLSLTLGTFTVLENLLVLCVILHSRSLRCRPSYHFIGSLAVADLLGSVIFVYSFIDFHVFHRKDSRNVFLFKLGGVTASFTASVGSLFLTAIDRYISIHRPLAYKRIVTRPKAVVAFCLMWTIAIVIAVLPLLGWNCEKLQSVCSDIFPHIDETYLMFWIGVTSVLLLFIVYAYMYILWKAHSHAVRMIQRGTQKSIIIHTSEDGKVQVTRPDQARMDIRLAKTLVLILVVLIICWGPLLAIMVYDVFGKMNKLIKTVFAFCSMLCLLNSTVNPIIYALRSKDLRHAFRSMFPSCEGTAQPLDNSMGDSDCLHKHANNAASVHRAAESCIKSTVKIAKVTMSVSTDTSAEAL
T2 sequence (P34972 whole entry): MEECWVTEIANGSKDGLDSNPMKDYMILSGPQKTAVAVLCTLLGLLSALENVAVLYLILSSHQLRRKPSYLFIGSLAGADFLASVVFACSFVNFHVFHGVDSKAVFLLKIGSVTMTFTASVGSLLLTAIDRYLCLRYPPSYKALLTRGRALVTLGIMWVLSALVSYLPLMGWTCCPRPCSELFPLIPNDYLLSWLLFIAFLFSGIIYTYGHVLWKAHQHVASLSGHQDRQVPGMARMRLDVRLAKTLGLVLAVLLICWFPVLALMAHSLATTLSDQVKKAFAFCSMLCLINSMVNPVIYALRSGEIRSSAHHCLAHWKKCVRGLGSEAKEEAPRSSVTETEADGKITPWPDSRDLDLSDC

`CCCCC(C)(C)c1cc(OC(=O)C=CC(=O)O)c2c3c(oc2c1)CCCC3` [Compound C6M-8, But-2-enedioic acid mono-[3-(1,1-dimethylpentyl)-6,7,8,9-tetrahydro-dibenzofuran-1-yl]ester] showed an EC50 [1] of 0.25 nM, an Emax ([1]; upper plateau of curve) of -25% and an EC50 [2] of over 10000 nM. For the same molecule, the “Percent inhibition of gene expression, IL-1β” value [3] was 51%, the “Percent inhibition of gene expression, iNOS” value [4] was 66% and the “Percent inhibition of gene expression, MCP-1” value [5] was 85%. For the same molecule, the inhibition in vivo at 10 mg/kg [6, 11] was 20% and the inhibition in vivo at 10 mg/kg [6, 12] was 45%.
For `CCCCC(C)(C)c1cc(O)c2c(c1)OC1CC(C)(C)CCC21` (stereo not drawn) [Compound C6S-6, 3-(1,1-dimethylpentyl)-7,7-dimethyl-5a,6,7,8,9,9a-hexahydro-dibenzofuran-1-ol], the “Percent inhibition of gene expression, COX-2” value [7] was “NO (NO indicates that the compound tested did not significantly affect the transcription of the gene assessed and that its activity is comparable to vehicle, within ±20% from this control)”, the “Percent inhibition of gene expression, IL-1β” value [3] was 37% and the “Percent inhibition of gene expression, iNOS” value [4] was “NO (NO indicates that the compound tested did not significantly affect the transcription of the gene assessed and that its activity is comparable to vehicle, within ±20% from this control)”. For the same molecule, the “Percent inhibition of gene expression, MCP-1” value [5] was “NO (NO indicates that the compound tested did not significantly affect the transcription of the gene assessed and that its activity is comparable to vehicle, within ±20% from this control)” and the inhibition in vivo at 2 mg/kg ([8]; Mus musculus, iv, read-out: Percent Inhibition of Visceral Pain Writhing Responses) was 38%.
`CCCCC(C)(C)c1cc(OCC(=O)O)c2c(c1)OC1CCCCC21` (stereo not drawn) [Compound C6S-9, [3-(1,1-Dimethylpentyl)-5a,6,7,8,9,9a-hexahydro-dibenzofuran-1-yloxy]-acetic acid] was tested, and the inhibition in vivo at 10 mg/kg [6, 11] was 14%, the inhibition in vivo at 10 mg/kg [6, 12] was 53% and the “transient loss in body weight” value ([9]; 20 mg/kg i.p. daily) was “behaved as the sulfasalazin treated group”. For the same molecule, the mortality ([9]; 20 mg/kg i.p. daily) was 0%.
`CCCCCCC(C)(C)c1cc(OCC(=O)O)c2c(c1)OC1C(O)CCCCC21` (stereo not drawn) [Compound C7S-10, [2-(1,1-dimethylheptyl)-9-hydroxy-5,6,7,8,9,9a-hexahydro-4bH-10-oxa-benzo[α]azulen-4-yloxy]-acetic acid] was tested, and the “Percent Inhibition of Visceral Pain Writhing Responses” value [8] was 53%, the “Percent Inhibition of Inflammatory Pain Responses, Edema” value ([6]; 10 mg/kg i.p., 3 hours after carrageenan, reduction in paw swelling) was 41% and the “Percent Inhibition of Inflammatory Pain Responses, ΔForce” value ([6]; 10 mg/kg i.p., 3 hours, mechanical stimulus) was 25%. For the same molecule, the “Percent Inhibition of Inflammatory Pain Responses, ΔLT” value ([6]; 10 mg/kg i.p., 3 hours, thermal stimulus) was 61%, the “inhibition of paw swelling” value ([6]; 30 mg/kg p.o.) was 60% and the “pain response (Δforce)” value ([10]; last time point (4.5 hours)) was “totally abrogated the pain response”. The “reduction of pain response (Δforce)” value ([10]; one hour after administration) was 70-80%.
For `O=C(O)c1cc(/N=N/c2ccc(S(=O)(=O)Nc3ccccn3)cc2)ccc1O` [sulfasalazine, reference compound], the “regained normal weight on” value ([9]; 10 mg/kg) was 6 days, the “transient loss in body weight” value ([9]; 10 mg/kg) was 10% and the mortality ([9]; 10 mg/kg) was 0%.
